Values quoted from earlier work, collected in patent US20030032669A1, “Pesticidal compositions and their use as protecting agents” (priority 2000, published 2003).

Key:
[1] = test system: adult grain weevils Sitophilus granarius; settings: wheat treated with 1 μg/g; after 50 days
[2] = alcohols, ketones and toluene
[3] = test system: larvae of German cockroach Blatella germanica; settings: exposure to 100 ng/cm^2; after 3 weeks
[4] = aqueous solutions at 50° C.

| Structure (SMILES) | degradation in soil | phyto-toxicity (plants) | reduction of population of adult grain weevils [1] [%] | solubility in organic solvents [2] | reduction of population of larvae of German cockroach [3] [%] | stability to hydrolysis [4] |
| --- | --- | --- | --- | --- | --- | --- |
| O=C(NC(=O)c1c(F)cccc1F)Nc1ccc(Oc2ccc(C(F)(F)F)cc2Cl)cc1F [flufenoxuron, 1-[4-(2-chloro-trifluoro-p-tolyloxy)-2-fluorophenyl]-3-(2,6-difluorobenzoyl)urea] | rapidly degraded | no recorded phyto-toxicity | – | – | – | – |
| CCOC(=O)NCCOc1ccc(Oc2ccccc2)cc1 [fenoxycarb, ethyl 2-(4-phenoxyphenoxy)ethylcarbamate] | rapidly degraded | – | 100 | very soluble | 90 | stable to hydrolysis |
